This note sets out measurements from patent publication US20080274892A1, “Novel Haloalkylsulfonanilide Derivative, Herbicide, and Method of Use Thereof” (priority 2005, published 2008).

Data set [1] deals with bulrush. As to the kind of experiment: Test Example 4: low dosage test for rice paddy weeds. It is filed as in vivo, Scirpus juncoides. Particulars: 300 g/ha as an active ingredient; plants treated at the one leaf stage; 21 days after treatment; vs untreated control. In short, it runs like this:
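Compound applied as a formulation at 300 g/ha to one-leaf bulrush grown in flooded clay loam (5 cm water) in a hot house. After 21 days, growth inhibition versus untreated plants rated on a 0–4 scale, with 4 meaning 90–100%.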

For data set [2], the system named is bulrush. As to the kind of experiment: Test Example 2: herbicidal efficacy on rice paddy weeds post-emergence. Particulars: dosage 1000 g/ha; post-emergence, one leaf stage; 21 days after treatment. It is filed as in vivo, Scirpus juncoides.
The next data set concerns barnyard glass. Described as above. The note with it: dosage 1000 g/ha; post-emergence, one leaf stage; 21 days after treatment. It is filed as in vivo, Echinochloa crus-galli. In short, it runs like this: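 Efficacy on paddy weeds was scored on a 0 to 4 growth-inhibition scale: 4 for 90%-100%, 3 for 70%-89%, 2 for 40%-69%, 1 for 1%-39% and 0 for 0%. Barnyard glass was grown in clay loam in 75 cm^2 pots under 5 cm of water in a hot house. It was compared with untreated pots 21 days after treatment.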

The test system of data set [3] is bulrush. Briefly: Test Example 1: herbicidal efficacy on rice paddy weeds pre-emergence. It is filed as in vivo, Scirpus juncoides. Particulars: dosage 1000 g/ha, 21 days.
The test system of data set [4] is transplanted paddy rice plant and Bulrush. Briefly: Test Example 5: selectivity between transplanted paddy rice plant and weeds. It is filed as in vivo. The note with it: (highest dosage with no phytotoxicity to paddy rice)/(lowest dosage with effective level 4 on Bulrush); rice 3000-100 g/ha, Bulrush 300-10 g/ha; 21 days. In outline: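 Scoring ran 21 days after treatment in a hothouse on a 0–4 scale (4 = 90–100%, 3 = 70–89%, 2 = 40–69%, 1 = 1–39%, 0 = none) relative to untreated plants. Post-emergence bulrush received 10, 30, 100 and 300 g/ha active ingredient. Transplanted rice received 100, 300, 1000 and 3000 g/ha to assess crop injury.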

For data set [5], the system named is paddy rice plant (cultivar: Nihonbare). Briefly: Test Example 3: phytotoxicity test for transplanted paddy rice plant. It is filed as in vivo. The note with it: dosage 1000 g/ha; transplanted rice, treated 5 days after transplantation; 21 days after treatment. In short, it runs like this: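 Clay loam soil was placed in a 75 cm^2 plastic pot and flooded to a water depth of 5 cm. Two Nihonbare paddy rice plants at the two-leaf stage were transplanted 1 cm deep and grown in a hot house. After treatment, pots stayed in the hot house for 21 days, and phytotoxicity was then graded against an untreated control.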

Data set [6] has as its system false pimpernel. Briefly: Test Example 2: herbicidal efficacy on rice paddy weeds post-emergence. The data set is classed as in vivo, Lindernia pyxidaria. The note with it: dosage 1000 g/ha; post-emergence, one leaf stage; 21 days after treatment.
Data set [7] deals with false pimpernel. Briefly: Test Example 1: herbicidal efficacy on rice paddy weeds pre-emergence. The data set is classed as in vivo, Lindernia pyxidaria. Particulars: dosage 1000 g/ha, 21 days.

Turning to `CCC1(C)CN(Cc2ccccc2N(C(=O)OC)S(=O)(=O)C(F)(F)F)C(=O)O1` (racemic) [1-108], in the data set on bulrush [1], the “Herbicide effect to Bulrush” value is 4 (90%-100% of herbicidal efficacy or phytotoxicity). In the data set with bulrush [2], the “Bulrush post (herbicidal efficacy grade)” value is given as 4 (90%-100% of herbicidal efficacy or phytotoxicity). In addition, the “Burnyard grass post (herbicidal efficacy grade)” value (from here on “Burnyard grass post”) with barnyard glass is 4 (90%-100% of herbicidal efficacy or phytotoxicity). Moreover, in the data set on bulrush [3], the “Bulrush pre (herbicidal efficacy grade)” value is 4 (90%-100% of herbicidal efficacy or phytotoxicity). Moreover, the “Selective Index” value in data set [4] is 30. Also, the “Phytotoxicity to paddy rice” value in data set [5] is 2 (40%-69% of herbicidal efficacy or phytotoxicity). For the same molecule, in the data set on false pimpernel [6], the “False pimpernel post (herbicidal efficacy grade)” value (“False pimpernel post” for short) is 4 (90%-100% of herbicidal efficacy or phytotoxicity). Further, the “False pimpernel pre (herbicidal efficacy grade)” value (from here on “False pimpernel pre”) with false pimpernel [7] is given as 4 (90%-100% of herbicidal efficacy or phytotoxicity).

Regarding `CC[C@@H]1CN(Cc2ccccc2N(C(=O)OCC(C)C)S(=O)(=O)C(F)(F)F)C(=O)O1` [1-58], the “Herbicide effect to Bulrush” value in the data set with bulrush [1] is on record as 4 (90%-100% of herbicidal efficacy or phytotoxicity). The “Bulrush post (herbicidal efficacy grade)” value with bulrush [2] is recorded as 4 (90%-100% of herbicidal efficacy or phytotoxicity). For the same molecule, in the data set with barnyard glass, the “Burnyard grass post” value is 4 (90%-100% of herbicidal efficacy or phytotoxicity). For the same molecule, the “Bulrush pre (herbicidal efficacy grade)” value in the data set with bulrush [3] is recorded as 4 (90%-100% of herbicidal efficacy or phytotoxicity). Further, the “Selective Index” value in data set [4] was “≧30”. In addition, the “Phytotoxicity to paddy rice” value in data set [5] was 1 (1%-39% of herbicidal efficacy or phytotoxicity). Besides, the “False pimpernel post” value in the data set on false pimpernel [6] is reported as 4 (90%-100% of herbicidal efficacy or phytotoxicity). Moreover, in the data set with false pimpernel [7], the “False pimpernel pre” value is reported as 4 (90%-100% of herbicidal efficacy or phytotoxicity).

As to `CCOC(=O)N(c1ccccc1CN1CC(CC)(CC)OC1=O)S(=O)(=O)C(F)(F)F` [1-97], in the data set with bulrush [1], the “Herbicide effect to Bulrush” value is on record as 4 (90%-100% of herbicidal efficacy or phytotoxicity). Besides, the “Bulrush post (herbicidal efficacy grade)” value with bulrush [2] is 4 (90%-100% of herbicidal efficacy or phytotoxicity). In addition, the “Burnyard grass post” value in the data set with barnyard glass is given as 4 (90%-100% of herbicidal efficacy or phytotoxicity). Further, the “Bulrush pre (herbicidal efficacy grade)” value with bulrush [3] is 4 (90%-100% of herbicidal efficacy or phytotoxicity). In data set [4], the “Selective Index” value is 30. In data set [5], the “Phytotoxicity to paddy rice” value is on record as 1 (1%-39% of herbicidal efficacy or phytotoxicity). In the data set on false pimpernel [6], the “False pimpernel post” value is reported as 4 (90%-100% of herbicidal efficacy or phytotoxicity). In addition, the “False pimpernel pre” value in the data set with false pimpernel [7] is recorded as 4 (90%-100% of herbicidal efficacy or phytotoxicity).

For the molecule `COC(=O)N(c1ccccc1CN1CC(C)(C(F)(F)F)OC1=O)S(=O)(=O)C(F)(F)F` (centres unmarked) [1-143], the “Herbicide effect to Bulrush” value in the data set with bulrush [1] is 4 (90%-100% of herbicidal efficacy or phytotoxicity). Further, the “Bulrush post (herbicidal efficacy grade)” value in the data set with bulrush [2] is reported as 4 (90%-100% of herbicidal efficacy or phytotoxicity). Besides, the “Burnyard grass post” value with barnyard glass is 4 (90%-100% of herbicidal efficacy or phytotoxicity). Also, the “Bulrush pre (herbicidal efficacy grade)” value in the data set with bulrush [3] is on record as 4 (90%-100% of herbicidal efficacy or phytotoxicity). In addition, the “Selective Index” value in data set [4] turned out to be 10. Moreover, the “Phytotoxicity to paddy rice” value in data set [5] was 1 (1%-39% of herbicidal efficacy or phytotoxicity). The “False pimpernel post” value in the data set with false pimpernel [6] is listed as 4 (90%-100% of herbicidal efficacy or phytotoxicity). Moreover, the “False pimpernel pre” value in the data set on false pimpernel [7] is recorded as 4 (90%-100% of herbicidal efficacy or phytotoxicity).

Take `CC(C)COC(=O)N(c1ccccc1CN1CC(C2CC2)(C2CC2)OC1=O)S(=O)(=O)C(F)(F)F` [1-171]: the “Herbicide effect to Bulrush” value with bulrush [1] is 4 (90%-100% of herbicidal efficacy or phytotoxicity). Moreover, the “Bulrush post (herbicidal efficacy grade)” value with bulrush [2] is 4 (90%-100% of herbicidal efficacy or phytotoxicity). In the data set with barnyard glass, the “Burnyard grass post” value was 4 (90%-100% of herbicidal efficacy or phytotoxicity). Further, the “Bulrush pre (herbicidal efficacy grade)” value in the data set with bulrush [3] is 4 (90%-100% of herbicidal efficacy or phytotoxicity). Moreover, the “Selective Index” value in data set [4] is listed as 10. The “Phytotoxicity to paddy rice” value in data set [5] was 1 (1%-39% of herbicidal efficacy or phytotoxicity). Also, in the data set on false pimpernel [6], the “False pimpernel post” value is listed as 4 (90%-100% of herbicidal efficacy or phytotoxicity). Besides, in the data set on false pimpernel [7], the “False pimpernel pre” value is 4 (90%-100% of herbicidal efficacy or phytotoxicity).

Regarding `CC1CN(Cc2ccccc2NS(=O)(=O)C(F)(F)F)C(=O)O1` (centres unmarked) [1-17], the “Herbicide effect to Bulrush” value in the data set on bulrush [1] is given as 3 (70%-89% of herbicidal efficacy or phytotoxicity). Besides, the “Bulrush post (herbicidal efficacy grade)” value with bulrush [2] is 4 (90%-100% of herbicidal efficacy or phytotoxicity). The “Burnyard grass post” value in the data set with barnyard glass was 4 (90%-100% of herbicidal efficacy or phytotoxicity). The “Bulrush pre (herbicidal efficacy grade)” value in the data set on bulrush [3] is given as 4 (90%-100% of herbicidal efficacy or phytotoxicity). For the same molecule, in data set [4], the “Selective Index” value is on record as 10. In data set [5], the “Phytotoxicity to paddy rice” value was 0 (0% of herbicidal efficacy or phytotoxicity). Also, in the data set with false pimpernel [6], the “False pimpernel post” value is given as 4 (90%-100% of herbicidal efficacy or phytotoxicity). Moreover, the “False pimpernel pre” value with false pimpernel [7] was 4 (90%-100% of herbicidal efficacy or phytotoxicity).

Regarding `CC(C)OC(=O)N(c1ccccc1CN1CC(C)(C2CC2)OC1=O)S(=O)(=O)C(F)(F)F` (racemic) [1-118], the “Herbicide effect to Bulrush” value in the data set on bulrush [1] was 4 (90%-100% of herbicidal efficacy or phytotoxicity). The “Bulrush post (herbicidal efficacy grade)” value with bulrush [2] was 4 (90%-100% of herbicidal efficacy or phytotoxicity). Also, in the data set with barnyard glass, the “Burnyard grass post” value was 4 (90%-100% of herbicidal efficacy or phytotoxicity). Further, in the data set on bulrush [3], the “Bulrush pre (herbicidal efficacy grade)” value is 4 (90%-100% of herbicidal efficacy or phytotoxicity). For the same molecule, in data set [4], the “Selective Index” value turned out to be 30. Besides, the “Phytotoxicity to paddy rice” value in data set [5] was 1 (1%-39% of herbicidal efficacy or phytotoxicity). Moreover, the “False pimpernel post” value with false pimpernel [6] is recorded as 4 (90%-100% of herbicidal efficacy or phytotoxicity). Also, the “False pimpernel pre” value in the data set with false pimpernel [7] is 4 (90%-100% of herbicidal efficacy or phytotoxicity).

For `COC(=O)N(c1ccccc1CN1CC(C)(C2(C)CC2)OC1=O)S(=O)(=O)C(F)(F)F` (centres unmarked) [1-169], the “Herbicide effect to Bulrush” value in the data set on bulrush [1] is 4 (90%-100% of herbicidal efficacy or phytotoxicity). Besides, the “Bulrush post (herbicidal efficacy grade)” value with bulrush [2] is 4 (90%-100% of herbicidal efficacy or phytotoxicity). In addition, the “Burnyard grass post” value with barnyard glass is 4 (90%-100% of herbicidal efficacy or phytotoxicity). In the data set with bulrush [3], the “Bulrush pre (herbicidal efficacy grade)” value was 4 (90%-100% of herbicidal efficacy or phytotoxicity). For the same molecule, the “Selective Index” value in data set [4] is 10. In data set [5], the “Phytotoxicity to paddy rice” value was 1 (1%-39% of herbicidal efficacy or phytotoxicity). For the same molecule, the “False pimpernel post” value in the data set on false pimpernel [6] is recorded as 4 (90%-100% of herbicidal efficacy or phytotoxicity). The “False pimpernel pre” value with false pimpernel [7] was 4 (90%-100% of herbicidal efficacy or phytotoxicity).

As for `CC(C)OCCOC(=O)N(c1ccccc1CN1CC(C)(C)OC1=O)S(=O)(=O)C(F)(F)F` [1-78], the “Herbicide effect to Bulrush” value in the data set with bulrush [1] is listed as 4 (90%-100% of herbicidal efficacy or phytotoxicity). In the data set with bulrush [2], the “Bulrush post (herbicidal efficacy grade)” value was 4 (90%-100% of herbicidal efficacy or phytotoxicity). In addition, the “Burnyard grass post” value with barnyard glass is on record as 4 (90%-100% of herbicidal efficacy or phytotoxicity). Moreover, the “Bulrush pre (herbicidal efficacy grade)” value in the data set with bulrush [3] is 4 (90%-100% of herbicidal efficacy or phytotoxicity). In addition, in data set [4], the “Selective Index” value stood at 10. Moreover, in data set [5], the “Phytotoxicity to paddy rice” value was 1 (1%-39% of herbicidal efficacy or phytotoxicity). Also, the “False pimpernel post” value in the data set on false pimpernel [6] is reported as 4 (90%-100% of herbicidal efficacy or phytotoxicity). For the same molecule, in the data set on false pimpernel [7], the “False pimpernel pre” value was 4 (90%-100% of herbicidal efficacy or phytotoxicity).

For `CC(C)(C)COC(=O)N(c1ccccc1CN1CC(C)(C)OC1=O)S(=O)(=O)C(F)(F)F` [1-66], the “Herbicide effect to Bulrush” value in the data set with bulrush [1] was 4 (90%-100% of herbicidal efficacy or phytotoxicity). Further, the “Bulrush post (herbicidal efficacy grade)” value with bulrush [2] is listed as 4 (90%-100% of herbicidal efficacy or phytotoxicity). For the same molecule, the “Burnyard grass post” value in the data set on barnyard glass is listed as 4 (90%-100% of herbicidal efficacy or phytotoxicity). Further, the “Bulrush pre (herbicidal efficacy grade)” value in the data set on bulrush [3] was 4 (90%-100% of herbicidal efficacy or phytotoxicity). Moreover, the “Selective Index” value in data set [4] is listed as “≧30”. The “Phytotoxicity to paddy rice” value in data set [5] is 1 (1%-39% of herbicidal efficacy or phytotoxicity). In the data set on false pimpernel [6], the “False pimpernel post” value is 4 (90%-100% of herbicidal efficacy or phytotoxicity). In the data set on false pimpernel [7], the “False pimpernel pre” value is listed as 4 (90%-100% of herbicidal efficacy or phytotoxicity).
